These results are taken from patent US5972899A, “Apoptosis induced by Shigella IpaB” (New York University, priority 1996, dated 1999).

The subject of this assay is J774 cells infected with S. flexneri M90T. The experiment in a line: LDH release cytotoxicity assay, J774 cells infected with S. flexneri M90T. It is filed as cell-based, murine. The protocol:
In the studies the results of which are shown in FIG. 5, 2×10^4 J774 or peritoneal macrophage cells were seeded onto 96-well plates 18 hours before infection with M90T at a multiplicity of infection of 25 bacteria per cell (Clerc, P. L. et al., supra). Two hours after infection, supernatants of the infected macrophages were assayed for LDH using the Cytotox96® kit (Promega) according to the manufacture's instructions. The percent cytotoxicity was calculated as: [formula] where spontaneous release is the amount of LDH activity in supernatants of cells not infected and total release is the LDH activity in macrophage lysates. ICE inhibitor was added 1 h before infection at a concentration of 25 μg/ml.
For orientation: Release of lactate dehydrogenase indicates damage to the cell membrane.

Structures are written as SMILES.

Regarding `CC(=O)N[C@@H](Cc1ccc(O)cc1)C(=O)N[C@H](C(=O)N[C@@H](C)C(=O)N[C@H](C=O)CC(=O)O)C(C)C` [Ac-YVAD-CHO], the inhibition at 25 µg/mL (Mus musculus, ICE inhibitor 25 μg/ml added 1 h before infection, M90T at 25 bacteria per cell, LDH release 2 h after infection, read-out: inhibition of S. flexneri-induced cell death) came to 81.5%. Also, for the setting “inhibitor washed away (FIG. 5)”, the “reversibility of the inhibition of cell death” value is recorded as “reversed by washing away the inhibitor”.

What is called inhibition is the change of the read-out against control, counted positive when it falls.
